Assay results taken from ChEMBL document CHEMBL1201862, “PubChem BioAssay data set” (2004).
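48-hour exposure; five concentrations; linearly interpolated endpoints. GI50 = concentration required for 50% inhibition of growth.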 Calls of active or inactive are those of the source. Cut-off read from the data, not from the text of the source: active = GI50 up to about 1.1 µM and inactive = higher.

Key:
Experiment in all cases: inhibition of tumour cell growth, NCI panel, 48 h
XF498 = tested on: XF498
HOP-18 = tested on: HOP-18
RXF 631 = tested on: RXF 631
LXFL 529 = tested on: LXFL 529
DMS-114 = tested on: DMS-114
M19-MEL = tested on: M19-MEL
SNB-78 = tested on: SNB-78
KM-20L2 = tested on: KM-20L2
DMS-273 = tested on: DMS-273

Measured: GI50

CC1=NC(C(=O)O)Cc2c1[nH]c1ccccc21 (configuration not stated)
inactive: XF498 > 100 µM | HOP-18 > 100 µM | RXF 631 > 100 µM | LXFL 529 > 100 µM | DMS-114 > 100 µM | M19-MEL > 100 µM | SNB-78 > 100 µM | KM-20L2 > 100 µM

O=C1NC2(CCCCC2)C2CCCCCC12 (configuration not stated)
inactive: XF498 > 100 µM | RXF 631 > 100 µM | LXFL 529 > 100 µM | DMS-114 > 100 µM | SNB-78 > 100 µM | KM-20L2 > 100 µM

O=C1CN(c2ccccc2)C(=O)C1C(=O)Nc1ccc(Cl)c(Cl)c1 (configuration not stated)
inactive: RXF 631 3.59 µM | LXFL 529 1.65 µM | DMS-114 2.76 µM | M19-MEL 1.77 µM | DMS-273 3.1 µM | KM-20L2 4.41 µM

CC1(C)C2CCC3(OCCO3)C1C(O)C2 (configuration not stated)
inactive: XF498 > 100 µM | HOP-18 > 100 µM | RXF 631 > 100 µM | LXFL 529 > 100 µM | M19-MEL > 100 µM | SNB-78 > 100 µM | DMS-273 > 100 µM | KM-20L2 > 100 µM

COc1cc2c(cc1OC)C(Cl)C(c1cc(OC)c(OC)c(OC)c1)=C2Cl (configuration not stated)
inactive: HOP-18 14.7 µM | RXF 631 18.8 µM | LXFL 529 11.5 µM | DMS-114 10.8 µM | M19-MEL 14.8 µM | SNB-78 12.2 µM | DMS-273 16.5 µM | KM-20L2 17.9 µM

CN(C)CCSc1nccc(-c2ccc(-c3ccnc(SCCN(C)C)n3)s2)n1
inactive: XF498 15.6 µM | HOP-18 27.2 µM | DMS-114 11.9 µM | M19-MEL 9.42 µM | SNB-78 13 µM | DMS-273 8.3 µM | KM-20L2 7.36 µM

CCOC(=O)CC(NC(=O)c1ccc(/N=N/N(C)C)cc1)C(=O)OCC (configuration not stated)
inactive: LXFL 529 > 100 µM | M19-MEL > 100 µM | DMS-273 > 100 µM

O=C1OC(c2ccc(Cl)cc2)(c2ccc(Cl)cc2)c2c1ccc1ccccc21
inactive: XF498 > 100 µM | HOP-18 > 100 µM | LXFL 529 > 100 µM | M19-MEL > 100 µM | SNB-78 > 100 µM | DMS-273 > 100 µM | KM-20L2 > 100 µM

Cc1cc2c(C(C)C)c(O)c(O)c(/C=N/c3ccccc3)c2c(O)c1-c1c(C)cc2c(C(C)C)c(O)c(O)c(/C=N/c3ccccc3)c2c1O
inactive: XF498 > 100 µM | LXFL 529 > 100 µM | DMS-114 > 100 µM | M19-MEL > 100 µM | DMS-273 > 100 µM | KM-20L2 > 100 µM

COC(=O)c1cccc(C(=O)OC)c1
inactive: XF498 > 100 µM | HOP-18 > 100 µM | LXFL 529 > 100 µM | SNB-78 > 100 µM | DMS-273 > 100 µM

CCOC(=O)NC(=O)c1cn(CCSCCOC(=O)NCCCCCCNC(=O)OCCSCCn2cc(C(=O)NC(=O)OCC)c(=O)[nH]c2=O)c(=O)[nH]c1=O
inactive: HOP-18 > 100 µM | DMS-114 > 100 µM | M19-MEL > 100 µM | SNB-78 > 100 µM | DMS-273 > 100 µM | KM-20L2 > 100 µM

CCOC1=C2N=C(Cc3ccc(F)cc3)NC2C(=O)c2ccccc21 (configuration not stated)
inactive: XF498 > 10 µM | RXF 631 15.1 µM | LXFL 529 25.5 µM | DMS-114 18.5 µM | M19-MEL 9.44 µM | SNB-78 69 µM | DMS-273 9.71 µM | KM-20L2 40.3 µM

COc1nc(N)nc2nc[nH]c12
inactive: XF498 279 µM | HOP-18 360 µM | RXF 631 647 µM | LXFL 529 > 800 µM | DMS-114 467 µM | M19-MEL > 500 µM | SNB-78 287 µM | DMS-273 430 µM | KM-20L2 > 500 µM
